From ChEMBL document CHEMBL1201862, “PubChem BioAssay data set” (2004)
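Where inhibition never reached the appropriate level, the endpoint shown equals the highest concentration tested. Otherwise, values were interpolated linearly from a five-concentration, 48-hour dose response in 96-well plates. Abbreviation: GI50, concentration required for 50% inhibition of growth.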 Calls of active or inactive are those of the source. No stated cut-off is given here; in the data, active = GI50 up to about 1.1 µM and inactive = higher.

What was measured:
Experiment in all cases: inhibition of tumour cell growth, NCI panel, 48 h
A498 = tested on: A498
A549 = tested on: A549
CAKI-1 = tested on: CAKI-1
CCRF-CEM = tested on: CCRF-CEM
COLO 205 = tested on: COLO 205
DU-145 = tested on: DU-145
HCC 2998 = tested on: HCC 2998
HCT-116 = tested on: HCT-116
HOP-92 = tested on: HOP-92
M14 = tested on: M14
MDA-MB-231 = tested on: MDA-MB-231
NCI-H460 = tested on: NCI-H460
OVCAR-3 = tested on: OVCAR-3
OVCAR-5 = tested on: OVCAR-5
PC-3 = tested on: PC-3
SK-MEL-28 = tested on: SK-MEL-28
SK-MEL-2 = tested on: SK-MEL-2
SK-MEL-5 = tested on: SK-MEL-5
SR = tested on: SR
SW-620 = tested on: SW-620

Measured: GI50

Nc1nc(Cl)c(N)c(NCC2(CO)CCC2)n1
inactive: A498 > 100 µM | A549 > 100 µM | CAKI-1 > 100 µM | CCRF-CEM > 100 µM | COLO 205 > 100 µM | DU-145 > 100 µM | HCC 2998 > 100 µM | HCT-116 > 100 µM | HOP-92 76 µM | M14 > 100 µM | MDA-MB-231 > 100 µM | NCI-H460 > 100 µM | OVCAR-3 > 100 µM | OVCAR-5 > 100 µM | PC-3 > 100 µM | SK-MEL-28 > 100 µM | SK-MEL-2 > 100 µM | SK-MEL-5 75.9 µM | SR > 100 µM | SW-620 > 100 µM

CCN1C(NN)=NS(=O)(=O)c2ccccc21
inactive: A498 > 100 µM | A549 > 100 µM | CAKI-1 > 100 µM | CCRF-CEM > 100 µM | COLO 205 > 100 µM | DU-145 > 100 µM | HCC 2998 > 100 µM | HCT-116 > 100 µM | HOP-92 > 100 µM | M14 > 100 µM | MDA-MB-231 > 100 µM | NCI-H460 > 100 µM | OVCAR-3 > 100 µM | OVCAR-5 > 100 µM | PC-3 > 100 µM | SK-MEL-28 > 100 µM | SK-MEL-2 > 100 µM | SK-MEL-5 > 100 µM | SR > 100 µM | SW-620 > 100 µM

COC(=O)N1CC[C@@H]2CCC=C(c3cccc4c3OCO4)[C@@H]21
inactive: A498 > 100 µM | A549 > 100 µM | CAKI-1 > 100 µM | CCRF-CEM 49.3 µM | COLO 205 > 100 µM | DU-145 > 100 µM | HCC 2998 > 100 µM | HCT-116 > 100 µM | HOP-92 22 µM | M14 > 100 µM | MDA-MB-231 > 100 µM | NCI-H460 60 µM | OVCAR-3 > 100 µM | OVCAR-5 > 100 µM | PC-3 54.2 µM | SK-MEL-28 > 100 µM | SK-MEL-2 > 100 µM | SK-MEL-5 61.4 µM | SR > 100 µM | SW-620 > 100 µM

CC(=O)Oc1c(C)c2c(c3ncccc13)OC(C)C2 (stereo not given)
inactive: A498 20 µM | A549 13.4 µM | CAKI-1 14.6 µM | CCRF-CEM 6.37 µM | COLO 205 19.4 µM | DU-145 16.2 µM | HCC 2998 12.8 µM | HCT-116 14.9 µM | HOP-92 14.7 µM | M14 15.2 µM | MDA-MB-231 11.5 µM | NCI-H460 10.8 µM | OVCAR-3 32.4 µM | OVCAR-5 17.2 µM | PC-3 26 µM | SK-MEL-28 13.9 µM | SK-MEL-2 18.1 µM | SK-MEL-5 14.5 µM | SR 3.63 µM | SW-620 14.2 µM

CN1C(=O)C(O)CC1c1cccc(F)c1 (stereo not given)
inactive: A498 > 100 µM | A549 > 100 µM | CAKI-1 > 100 µM | CCRF-CEM > 100 µM | COLO 205 > 100 µM | DU-145 > 100 µM | HCC 2998 > 100 µM | HCT-116 > 100 µM | HOP-92 > 100 µM | M14 > 100 µM | MDA-MB-231 > 100 µM | NCI-H460 > 100 µM | OVCAR-3 > 100 µM | OVCAR-5 > 100 µM | PC-3 > 100 µM | SK-MEL-28 > 100 µM | SK-MEL-2 > 100 µM | SK-MEL-5 > 100 µM | SR > 100 µM | SW-620 > 100 µM

O=C(Nc1ccccc1)c1cc(S(=O)(=O)n2ccnc2O)c(S)cc1Cl
inactive: A498 > 100 µM | A549 > 100 µM | CAKI-1 > 100 µM | CCRF-CEM > 100 µM | COLO 205 > 100 µM | DU-145 > 100 µM | HCC 2998 > 100 µM | HCT-116 > 100 µM | HOP-92 > 100 µM | M14 > 100 µM | MDA-MB-231 > 100 µM | NCI-H460 > 100 µM | OVCAR-3 > 100 µM | OVCAR-5 > 100 µM | PC-3 > 100 µM | SK-MEL-28 > 100 µM | SK-MEL-2 > 100 µM | SK-MEL-5 > 100 µM | SR > 100 µM | SW-620 > 100 µM

CCCCCCCCCCCCCCCCOc1ccc(/C=C/C2=[N+](CCCl)CCO2)cc1
inactive: A498 73.1 µM | A549 > 100 µM | CAKI-1 > 100 µM | CCRF-CEM > 100 µM | COLO 205 67.6 µM | DU-145 > 100 µM | HCC 2998 > 100 µM | HCT-116 25.5 µM | HOP-92 > 100 µM | M14 > 100 µM | MDA-MB-231 20.1 µM | NCI-H460 90.4 µM | OVCAR-3 > 100 µM | OVCAR-5 > 100 µM | PC-3 > 100 µM | SK-MEL-28 > 100 µM | SK-MEL-2 > 100 µM | SK-MEL-5 > 100 µM | SR 30.1 µM | SW-620 > 100 µM
